Assays:
Experiment in all cases: Phenotype microarray metabolic activity
Assay type in all cases: cell-based
Actinomyces naeslundii = settings: for metabolic activity: OD 492 nm divided by OD of control (control = 1): A naeslundii
Protocol: (§1) The extent of metabolic activity of the tested bacteria in the presence of the above-mentioned saccharides after 24 hours and 48 hours was investigated through a high throughput phenotype microarray system (PM) for microbial cells (Biolog Inc.). Each PM can contain up to 95 different biochemical compounds (e.g. saccharides) that may act as substrates for bacteria as well as one negative control, not containing the substrates. Microarray plates were used in which the different wells of each plate were pre-loaded (by the manufacturer, Biolog Inc.) with different saccharides to be tested. Each bacterial species was tested using a separate microarray plate. Thus, a single bacterial species was tested with a variety of saccharides on each particular plate. The microarrays are based on redox technology, using cell respiration as a universal reporter. Active cell respiration results in the reduction of a tetrazolium dye and in the formation of a strong color—for example, when using the tetrazolium dye “Biolog Redox Dye Mix D”, the color changes from transparent/colorless to purple when the dye is reduced. The observation of this color change indicates which of the substrates improve the metabolic activity and health of the cells.
(§2) Each bacterial species was collected from blood agar plates (incubated for 48 hours anaerobically at 37° C.) and transferred to an IF-0 Base inoculation fluid (Biolog Inc.), which is a nutritionally poor medium. The resulting cell suspension was adjusted to a transmittance of 42% (relative to the transmittance of the base inoculation fluid with no bacterial species present) at 492 nm using a BioRad SmartSpec 3000 Photometer (the adjustment being effected by adding either further inoculation fluid or further bacteria until the transmittance of 42% was achieved). A 1:5 dilution of this suspension was prepared by mixing 3 mL of the 42% transmittance cell suspension with 15 mL of an inoculation fluid (which inoculation fluid was formed by mixing 11.6 mL sterile water, 62.5 mL IF-0 base inoculation fluid and 0.9 mL of the tetrazolium dye “Biolog Redox Dye mix D”), resulting in a final cell density which was equal to 85% transmittance using a BioRad SmartSpec 3000 Photometer. For each of the saccharides tested, the microarray plate (obtained from the supplier (Biolog Inc.) with saccharides already present in the relevant wells in powder form) was directly inoculated with 100 μL/well of this 85% transmittance cell suspension.
(§3) All plates were incubated in an anaerobic atmosphere at 37° C. Color changes were measured spectrophotometrically at 492 nm (Thermo Scientific Multiskan Ascent) at 24 hrs and 48 hrs using the same plate at both time points. […] After 24 hrs and 48 hrs under continuous shaking in a Multiscan microplate reader, the optical density (OD) of the synthetic medium at 24 hours and 48 hours was measured (using the microplate reader) at a wavelength of 492 nm for each combination of bacterium/saccharide, and for each of their respective controls (i.e. which contained the particular bacterium but no saccharide).
(§4) The experiment was carried out three times for each combination of bacterium with saccharide, with each repeat being carried out on a different day (thus providing three biological replicas). The controls were also carried out three times, as above. The values shown are the average (mean) of the three single values obtained (as detailed above) for each combination of bacterium with saccharide, at 24 hrs and at 48 hrs.

Actinomyces viscosus = settings: for metabolic activity: OD 492 nm divided by OD of control (control = 1): A viscosus
Protocol: as §1, §2, §3, §4

[1] = test system: Aggregatibacter actinomycetemcomitans; settings: A actinomycetemcomitans
Protocol: as §1, §2, §3, §4

Capnocytophaga sputigena = settings: C sputigena
Protocol: as §1, §2, §3, §4

Fusobacterium nucleatum = settings: F nucleatum
Protocol: as §1, §2, §3, §4

Porphyromonas gingivalis = settings: P gingivalis
Protocol: as §1, §2, §3, §4

Prevotella intermedia = settings: P intermedia
Protocol: as §1, §2, §3, §4

S sanguinis = test system: S sanguinis
Protocol: as §1, §2, §3, §4

Streptococcus gordonii = settings: S gordonii
Protocol: as §1, §2, §3, §4

Streptococcus mitis = settings: S mitis
Protocol: as §1, §2, §3, §4

Streptococcus mutans = settings: for metabolic activity: OD 492 nm divided by OD of control (control = 1): S mutans
Protocol: as §1, §2, §3, §4

Streptococcus salivarius = settings: for metabolic activity: OD 492 nm divided by OD of control (control = 1): S salivarius
Protocol: as §1, §2, §3, §4

Streptococcus sobrinus = settings: S sobrinus
Protocol: as §1, §2, §3, §4

Tannerella forsythia = settings: T forsythia
Protocol: as §1, §2, §3, §4

Veillonella parvula = settings: V parvula
Protocol: as §1, §2, §3, §4

OC[C@@H](O)[C@@H](O[C@H]1O[C@H](CO)[C@H](O)[C@H](O)[C@H]1O)[C@H](O)[C@@H](O)CO [D-Lactitol, 4-O-α-D-galactopyranosyl-D-glucitol]
increase in metabolic activity of A. naeslundii, in words (Actinomyces naeslundii; 24 hrs): marked increase | metabolic activity: OD 492 nm divided by OD of control (control = 1) (Actinomyces naeslundii; 24 hrs): 2.4399 | metabolic activity: OD 492 nm divided by OD of control (control = 1) (Actinomyces naeslundii; 48 hrs): 3.3992 | increase in metabolic activity of A. viscosus, in words (Actinomyces viscosus; 24 hrs): marked increase | metabolic activity: OD 492 nm divided by OD of control (control = 1) (Actinomyces viscosus; 24 hrs): 4.2553 | metabolic activity: OD 492 nm divided by OD of control (control = 1) (Actinomyces viscosus; 48 hrs): 4.9364 | metabolic activity: OD 492 nm divided by OD of control (control = 1) ([1]; 24 hrs): 0.8916 | metabolic activity: OD 492 nm divided by OD of control (control = 1) ([1]; 48 hrs): 0.8237 | metabolic activity: OD 492 nm divided by OD of control (control = 1) (Capnocytophaga sputigena; 24 hrs): 0.9032 | metabolic activity: OD 492 nm divided by OD of control (control = 1) (Capnocytophaga sputigena; 48 hrs): 1.0097 | metabolic activity: OD 492 nm divided by OD of control (control = 1) (Fusobacterium nucleatum; 24 hrs): 0.9115 | metabolic activity: OD 492 nm divided by OD of control (control = 1) (Fusobacterium nucleatum; 48 hrs): 0.7913 | metabolic activity: OD 492 nm divided by OD of control (control = 1) (Porphyromonas gingivalis; 24 hrs): 0.8216 | metabolic activity: OD 492 nm divided by OD of control (control = 1) (Porphyromonas gingivalis; 48 hrs): 1.0092 | metabolic activity: OD 492 nm divided by OD of control (control = 1) (Prevotella intermedia; 24 hrs): 0.9834 | metabolic activity: OD 492 nm divided by OD of control (control = 1) (Prevotella intermedia; 48 hrs): 0.9481 | metabolic activity: OD 492 nm divided by OD of control (control = 1) (S sanguinis; 24 hrs): 1.0364 | metabolic activity: OD 492 nm divided by OD of control (control = 1) (S sanguinis; 48 hrs): 1.0188 | metabolic activity: OD 492 nm divided by OD of control (control = 1) (Streptococcus gordonii; 24 hrs): 1.5368 | metabolic activity: OD 492 nm divided by OD of control (control = 1) (Streptococcus gordonii; 48 hrs): 1.7842 | metabolic activity: OD 492 nm divided by OD of control (control = 1) (Streptococcus mitis; 24 hrs): 1.0047 | metabolic activity: OD 492 nm divided by OD of control (control = 1) (Streptococcus mitis; 48 hrs): 0.9006 | increase in metabolic activity of S. mutans, in words (Streptococcus mutans; 24 hrs): borderline increase | metabolic activity: OD 492 nm divided by OD of control (control = 1) (Streptococcus mutans; 24 hrs): 2.0160 | metabolic activity: OD 492 nm divided by OD of control (control = 1) (Streptococcus mutans; 48 hrs): 2.7520 | increase in metabolic activity of S. salivarius, in words (Streptococcus salivarius; 24 hrs): marked increase | metabolic activity: OD 492 nm divided by OD of control (control = 1) (Streptococcus salivarius; 24 hrs): 4.7396 | metabolic activity: OD 492 nm divided by OD of control (control = 1) (Streptococcus salivarius; 48 hrs): 5.1101 | metabolic activity: OD 492 nm divided by OD of control (control = 1) (Streptococcus sobrinus; 24 hrs): 1.4178 | metabolic activity: OD 492 nm divided by OD of control (control = 1) (Streptococcus sobrinus; 48 hrs): 1.3908 | metabolic activity: OD 492 nm divided by OD of control (control = 1) (Tannerella forsythia; 24 hrs): 1.0703 | metabolic activity: OD 492 nm divided by OD of control (control = 1) (Tannerella forsythia; 48 hrs): 1.1172 | metabolic activity: OD 492 nm divided by OD of control (control = 1) (Veillonella parvula; 24 hrs): 0.8079 | metabolic activity: OD 492 nm divided by OD of control (control = 1) (Veillonella parvula; 48 hrs): 0.6786
